Laboratory results reported in US11078207B2, “Substituted pyrrolo[2,3-d]pyrimidines as HER2 inhibitors” (TAIHO PHARMACEUTICAL CO., LTD., priority 2019, dated 2021).

How the values were obtained:
p-gp or Bcrp = conditions: Non Patent Literature 5; cited from earlier work
[1] = non-clinical tests, Non Patent Literature 5; cited from earlier work
brain metastatic cancer = conditions: clinical tests, Non Patent Literatures 6-9; cited from earlier work
HER2 = molecular target: T1, HER2 (Homo sapiens, UniProt P04626); assay: Inhibitory effect (in vitro) on HER2 phosphorylation activity; assay type: biochemical; conditions: recombinant human HER2, ATP 5 μM, 25° C. 30 minutes
T1 construct: purchased Carna Biosciences, Inc
T1 sequence (P04626 23-1255): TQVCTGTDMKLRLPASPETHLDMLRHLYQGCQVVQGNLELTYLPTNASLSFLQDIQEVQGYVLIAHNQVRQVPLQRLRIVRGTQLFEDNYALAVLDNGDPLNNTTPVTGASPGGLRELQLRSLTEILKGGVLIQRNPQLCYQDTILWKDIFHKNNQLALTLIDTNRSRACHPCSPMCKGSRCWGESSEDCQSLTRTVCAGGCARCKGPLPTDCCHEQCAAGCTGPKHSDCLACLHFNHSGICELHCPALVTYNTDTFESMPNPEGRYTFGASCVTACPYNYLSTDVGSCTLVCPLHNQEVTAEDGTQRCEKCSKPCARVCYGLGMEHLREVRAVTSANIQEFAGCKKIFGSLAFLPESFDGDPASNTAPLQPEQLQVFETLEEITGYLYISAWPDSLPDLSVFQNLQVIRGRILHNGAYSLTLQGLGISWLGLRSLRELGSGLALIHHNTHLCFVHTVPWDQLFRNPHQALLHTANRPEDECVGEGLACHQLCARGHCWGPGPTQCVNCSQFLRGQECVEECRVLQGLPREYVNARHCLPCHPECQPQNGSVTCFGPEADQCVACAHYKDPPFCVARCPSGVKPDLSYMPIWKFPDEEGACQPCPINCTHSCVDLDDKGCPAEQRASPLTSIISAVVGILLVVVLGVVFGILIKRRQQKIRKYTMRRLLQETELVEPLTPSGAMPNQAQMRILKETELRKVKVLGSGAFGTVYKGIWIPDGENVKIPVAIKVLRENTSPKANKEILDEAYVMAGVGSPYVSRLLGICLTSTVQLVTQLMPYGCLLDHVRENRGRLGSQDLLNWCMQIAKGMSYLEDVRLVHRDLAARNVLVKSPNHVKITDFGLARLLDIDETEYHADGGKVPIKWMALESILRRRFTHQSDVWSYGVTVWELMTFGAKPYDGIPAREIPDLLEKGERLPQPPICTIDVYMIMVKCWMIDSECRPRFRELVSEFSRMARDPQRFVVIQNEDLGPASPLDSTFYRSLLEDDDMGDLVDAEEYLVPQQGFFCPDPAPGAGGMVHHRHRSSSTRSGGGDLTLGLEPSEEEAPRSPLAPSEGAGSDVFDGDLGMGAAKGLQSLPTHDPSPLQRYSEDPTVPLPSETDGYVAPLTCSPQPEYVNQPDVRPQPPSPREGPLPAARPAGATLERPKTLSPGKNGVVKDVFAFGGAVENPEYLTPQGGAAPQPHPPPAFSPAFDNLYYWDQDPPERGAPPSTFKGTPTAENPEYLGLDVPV
Source text: In order to determine conditions for a method of measuring the in vitro inhibitory activity of a compound against HER2 phosphorylation activity, based on the report regarding a HER2 kinase reaction using, as a substrate, a peptide having the same sequence (5-FAM-[…]-CONH2) as that of ProfilerPro Peptide 22 of PerkinElmer (Xie H et al., PLoS One. 2011; 6(7): e21487), ProfilerPro Peptide 22 was used as a substrate. A purified recombinant human HER2 protein used in the present test was purchased from Carna Biosciences, Inc. Upon the measurement of the inhibitory activity of the compound, first, the compound of the present invention was diluted stepwise with dimethyl sulfoxide (DMSO). […] To the reaction solution, EDTA was added to a final concentration of 30 mM, so as to terminate the reaction. Finally, using LabChip (registered trademark) EZ Reader II (PerkinElmer), an unphosphorylated substrate peptide (S) and a phosphorylated peptide (P) were separated and detected according to microchannel capillary electrophoresis.

[2] = molecular target: HER2 exon 20 insertion mutant (HER2ex20insYVMA, A775_G776insYVMA) (Homo sapiens, UniProt P04626, DUP772-775); assay: Inhibitory action (in vitro) against HER2 exon 20 insertion mutant phosphorylation activity; assay type: biochemical; conditions: 30 min pre-incubation, ATP 200 μM, 25° C. 220 minutes
HER2 exon 20 insertion mutant (HER2ex20insYVMA, A775_G776insYVMA), sequence (P04626 with tags, fused parts or gaps DUP772-775): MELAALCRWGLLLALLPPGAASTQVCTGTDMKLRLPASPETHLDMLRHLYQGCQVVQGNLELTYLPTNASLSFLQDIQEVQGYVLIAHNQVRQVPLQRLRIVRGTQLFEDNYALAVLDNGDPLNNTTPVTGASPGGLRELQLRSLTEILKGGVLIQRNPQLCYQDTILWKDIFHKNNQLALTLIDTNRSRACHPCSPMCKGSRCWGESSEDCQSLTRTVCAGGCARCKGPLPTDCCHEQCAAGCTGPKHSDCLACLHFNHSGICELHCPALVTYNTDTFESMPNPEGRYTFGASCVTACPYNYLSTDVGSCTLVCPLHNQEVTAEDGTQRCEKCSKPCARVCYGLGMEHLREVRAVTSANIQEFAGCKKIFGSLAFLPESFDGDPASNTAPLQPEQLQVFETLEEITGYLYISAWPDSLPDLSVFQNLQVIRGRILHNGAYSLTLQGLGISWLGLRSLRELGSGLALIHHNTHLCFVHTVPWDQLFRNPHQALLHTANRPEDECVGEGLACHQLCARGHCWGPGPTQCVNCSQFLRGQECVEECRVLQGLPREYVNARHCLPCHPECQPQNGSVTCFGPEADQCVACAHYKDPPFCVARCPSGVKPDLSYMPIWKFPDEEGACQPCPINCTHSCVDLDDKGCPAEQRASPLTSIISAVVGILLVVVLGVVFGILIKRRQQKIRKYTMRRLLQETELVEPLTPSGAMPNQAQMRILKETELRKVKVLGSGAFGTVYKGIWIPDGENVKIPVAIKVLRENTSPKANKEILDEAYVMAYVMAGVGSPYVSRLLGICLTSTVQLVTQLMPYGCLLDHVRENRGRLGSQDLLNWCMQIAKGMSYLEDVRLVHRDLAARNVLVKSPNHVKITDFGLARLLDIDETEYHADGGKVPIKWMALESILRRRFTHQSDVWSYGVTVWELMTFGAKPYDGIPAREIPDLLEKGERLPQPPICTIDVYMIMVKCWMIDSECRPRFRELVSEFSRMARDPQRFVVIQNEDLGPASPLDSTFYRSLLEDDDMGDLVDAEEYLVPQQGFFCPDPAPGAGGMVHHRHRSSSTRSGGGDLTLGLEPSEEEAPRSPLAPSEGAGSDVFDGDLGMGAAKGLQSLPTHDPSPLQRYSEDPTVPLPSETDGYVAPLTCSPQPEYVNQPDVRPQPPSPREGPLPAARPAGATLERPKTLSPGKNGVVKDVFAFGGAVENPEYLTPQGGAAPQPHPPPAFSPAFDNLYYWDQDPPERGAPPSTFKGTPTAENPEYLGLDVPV
Source text: In order to determine conditions for a method of measuring the in vitro inhibitory activity of a compound against HER2 exon 20 insertion mutant phosphorylation activity, as in the case of HER2, ProfilerPro Peptide 22 was used as a substrate. A purified recombinant human HER2 exon 20 insertion mutant (A775_G776insYVMA) protein is shown in SEQ ID NO: 7, and was purchased from SignalChem. Upon the measurement of the inhibitory activity of the compound, first, the compound of the present invention was diluted stepwise with dimethyl sulfoxide (DMSO). Subsequently, the HER2 exon 20 insertion mutant protein and the compound of the present invention in DMSO solution (final concentration of DMSO: 5%) were added into a buffer for the kinase reaction (13.5 mM Tris (pH 7.5), 2 mM dithiothreitol, and 0.009% Tween 20), and the obtained mixture was then pre-incubated at 25° C. for 30 minutes. Thereafter, the substrate peptide (final concentration: 1 μM), manganese chloride (final concentration: 25 mM), magnesium chloride (final concentration: 20 mM), and ATP (final concentration: 200 μM) were added into the reaction mixture, and the thus obtained mixture was then incubated at 25° C. for 220 minutes, so that the kinase reaction was carried out. To the reaction solution, EDTA was added to a final concentration of 30 mM, so as to terminate the reaction. Finally, using LabChip (registered trademark) EZ Reader II (PerkinElmer), an unphosphorylated substrate peptide (S) and a phosphorylated peptide (P) were separated and detected according to microchannel capillary electrophoresis.

SK-BR-3 cells = assay: Growth inhibitory activity against HER2 expressing cell line SK-BR-3; assay type: cell-based; conditions: Homo sapiens, SK-BR-3, 72 h; 3 days, CellTiter-Glo 2.0
Method: SK-BR-3 cells as a HER2 overexpressing human breast cancer cell line were suspended in a McCoy's 5a medium (manufactured by Life Technologies) supplemented with 10% fetal bovine serum. The cell suspension was seeded in each well of a 384-well flat-bottom microplate, and was then cultured in a 5% carbon dioxide gas-containing culture vessel at 37° C. for 1 day. Thereafter, the compound of the present invention was dissolved in DMSO, and the compound was diluted to 500 times the final concentration in DMSO. The compound in the DMSO solution was diluted with DMSO solution or the medium used in the suspension of the cells, and the obtained solution was then added to each well of the culture plate so that the final concentration of DMSO was 0.2%. The obtained mixture was further cultured in the 5% carbon dioxide gas-containing culture vessel at 37° C. for 3 days. After completion of the culture for 3 days in the presence of the compound, the cells were counted using CellTiter-Glo 2.0 (manufactured by Promega), and the growth inhibition percentage was then calculated according to the following equation. […] Growth inhibitory percentage (%)=(C−T)/(C)×100 T: Emission intensity from the well to which the test compound was added C: Emission intensity from the well to which the test compound was not added

Ba/F3-HER2insYVMA cells = Ba/F3-HER2insYVMA cells (Homo sapiens, UniProt P04626, DUP772-775, cells depend on it); assay: Growth inhibitory activity against HER2 exon 20 insertion mutant expressing cell line; assay type: cell-based, mouse; conditions: 3 days, CellTiter-Glo 2.0, read-out: HER2ex20insYVMA cell growth inhibitory activity IC50 value
Ba/F3-HER2insYVMA cells, sequence (P04626 with tags, fused parts or gaps DUP772-775): as above
Method: Growth inhibitory activity against the HER2 exon 20 insertion mutant was measured using Ba/F3 cells that were a mouse B lymphocyte precursor cell line, into which a human HER2 exon 20 insertion mutant gene had been introduced. The Ba/F3 cells were maintained in an RPMI-1640 medium (Thermo Fisher Scientific) supplemented with 10% fetal bovine serum (FBS), 100 U/mL penicillin, 100 μg/mL streptomycin (Thermo Fisher Scientific) and 1 ng/mL mouse interleukin-3 (mIL-3) (CST).
Upon evaluation of cell growth inhibitory activity, the Ba/F3-HER2insYVMA cells were suspended in an RPMI-1640 medium supplemented with 10% FBS, 100 U/mL penicillin, and 100 μg/mL streptomycin. The cell suspension was seeded in each well of a 96-well flat-bottom microplate, and was then cultured in a 5% carbon dioxide gas-containing culture vessel at 37° C. for 1 day. The compound of the present invention was dissolved in DMSO, and was then diluted with DMSO or the medium used in the suspension of the cells. The obtained solution was then added to each well of the culture plate, so that the final concentration of DMSO became 0.2%. The obtained mixture was further cultured in the 5% carbon dioxide gas-containing culture vessel at 37° C. for 3 days. After completion of the culture for 3 days in the presence of the compound, the cells were counted using CellTiter-Glo 2.0 (manufactured by Promega), and the growth inhibition percentage was then calculated according to the following equation. […] Growth inhibitory percentage (%)=(C−T)/(C)×100 T: Emission intensity from the well to which the test compound was added C: Emission intensity from the well to which the test compound was not added

NCI-N87 cells = assay: Growth inhibitory activity against HER2 expressing cell line NCI-N87; assay type: cell-based; conditions: Homo sapiens, NCI-N87, 72 h; 3 days, CellTiter-Glo 2.0
Method: NCI-N87 cells as a HER2 overexpressing human stomach cancer cell line (American Type Culture Collection, Cat No. ATCC (registered trademark) CRL-5822) were suspended in an RPMI640 medium (Wako Pure Chemical Industries, Ltd.) supplemented with 10% fetal bovine serum. Subsequently, the cell suspension was seeded in each well of a 96-well flat-bottom microplate, and was then cultured in a 5% carbon dioxide gas-containing culture vessel at 37° C. for 1 day. Thereafter, the compound of the present invention was dissolved in DMSO, and the compound was diluted to 1000 times the final concentration in DMSO. The compound in the DMSO solution was diluted with the medium used in the suspension of the cells, and the obtained solution was then added to each well of the culture plate, so that the final concentration of DMSO became 0.1%. Regarding a control well, DMSO was diluted with the medium used in the suspension of the cells, and the obtained solution was then added to each well of the culture plate, so that the final concentration of DMSO became 0.1%. After addition of a drug solution, the obtained mixture was further cultured in the 5% carbon dioxide gas-containing culture vessel at 37° C. for 3 days. After completion of the culture for 3 days in the presence of the compound, the cells were counted using CellTiter-Glo 2.0 (manufactured by Promega) in accordance with the protocols recommended by Promega. The growth inhibition percentage was calculated according to the following equation. […] Growth inhibitory percentage (%)=(C−T)/(C)×100 T: Emission intensity from the well to which the test compound was added C: Emission intensity from the well to which the test compound was not added

[3] = Evaluation of oral absorbability; assay type: in vivo, BALB/cA mice; conditions: mouse; plasma, oral 50 mg/kg/day, BALB/cA mice
Method: The compound of the present invention was suspended or dissolved in 0.5% HPMC aqueous solution and 0.1 N hydrochloric acid, and the obtained suspension or solution was orally administered to BALB/cA mice (CLEA Japan, Inc.) at a dose of 50 mg/kg/day. At 0.5, 1, 2, 4 and 6 hours after completion of the oral administration, blood was collected from the facial vein over time, so as to obtain plasma. The concentration of the compound in the obtained plasma was measured by LC-MS/MS, and the oral absorbability of the present compound was evaluated.

SMILES	substrate of p-gp or Bcrp (p-gp or Bcrp)	brain penetration properties [1]	effects against brain metastatic cancer (brain metastatic cancer)	IC50 (HER2) [nM]	IC50 [2] [nM]	IC50 (SK-BR-3 cells) [nM]	GI50 (Ba/F3-HER2insYVMA cells) [nM]	IC50 (NCI-N87 cells) [nM]	AUC(0-t) [3] [µM·h]
CCOc1cc2ncc(C#N)c(Nc3ccc(OCc4ccccn4)c(Cl)c3)c2cc1NC(=O)/C=C/CN(C)C [Neratinib]	substrates of p-gp or Bcrp	limited	sufficient effects of these agents could not be obtained	–	–	–	–	–	–
C=CC(=O)N1C[C@H](n2c(C#CC(C)C)c(C(=O)NC(C)(C)c3ccccc3F)c3c(N)ncnc32)C[C@@H]1C [Example 15, 7-((3R,5S)-1-acryloyl-5-methylpyrrolidin-3-yl)-4-amino-N-(2-(2-fluorophenyl)propan-2-yl)-6-(3-methylbut-1-yn-1-yl)-7H-pyrrolo[2,3-d]pyrimidine-5-carboxamide]	–	–	–	4.6	0.42	7	40	11.6	34
CS(=O)(=O)CCNCc1ccc(-c2ccc3ncnc(Nc4ccc(OCc5cccc(F)c5)c(Cl)c4)c3c2)o1 [Lapatinib]	substrates of p-gp or Bcrp	limited	sufficient effects of these agents could not be obtained	–	–	–	–	–	–
